Experiment [1] addresses T1, Substance-K receptor (Rattus norvegicus) (UniProt P16610).
T1 sequence (whole entry): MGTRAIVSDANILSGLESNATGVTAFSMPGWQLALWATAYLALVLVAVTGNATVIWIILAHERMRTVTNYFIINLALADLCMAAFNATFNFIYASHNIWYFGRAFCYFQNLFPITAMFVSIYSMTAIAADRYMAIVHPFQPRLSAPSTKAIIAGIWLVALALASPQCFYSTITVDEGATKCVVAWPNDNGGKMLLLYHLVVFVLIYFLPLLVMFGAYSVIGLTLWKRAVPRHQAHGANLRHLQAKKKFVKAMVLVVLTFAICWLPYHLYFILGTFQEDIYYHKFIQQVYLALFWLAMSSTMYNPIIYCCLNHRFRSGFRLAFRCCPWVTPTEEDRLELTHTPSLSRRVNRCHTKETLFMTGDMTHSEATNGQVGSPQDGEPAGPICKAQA
Nature of the experiment: Antagonistic activity against Tachykinin receptor 2 in rat vas deferens at 100 nM concentration. The experiment is classed as functional.

For experiment [2], the target named is T1, Substance-K receptor (Rattus norvegicus). Nature of the experiment: Antagonistic activity against Tachykinin receptor 2 in rat vas deferens at 10 nM concentration. The experiment is classed as functional.
The target is the same in experiment [3]. Nature of the experiment: Antagonistic activity against Tachykinin receptor 2 in rat vas deferens at 30 nM concentration. It is filed as functional.
A further experiment addresses T2, Substance-K receptor (Rattus norvegicus, UniProt P16610).
T2 sequence (P16610 whole entry): T1 sequence (whole entry)
Nature of the experiment: pA2 value against Tachykinin receptor 2 in rat vas deferens. It is filed as tissue-based. The note with it: for Kb: read-out: pA2 (converted).

We go through three compounds from ChEMBL document CHEMBL1130985, “A novel super-potent neurokinin A receptor antagonist containing dehydroalanine” (Bioorg Med Chem Lett, 1998).

By Emax is commonly meant the size of the effect at its maximum, as opposed to the concentration needed. For orientation: pA2 means the negative logarithm of the molar antagonist concentration that doubles the agonist concentration needed for the same response. Low values mean a weaker antagonist, high ones a more potent antagonist.

Numbered stars: 1 amine (or outer) side, 2 acyl side, 3 side chain; on linkers, the order of the positions; unused ones are H or OH. Bridge positions count the residues as written; N and C are the ends. Square brackets hold non-standard residues; d marks the D form. Peptide text beside a SMILES is read from it. X1 = O=C([C@@H](CN[*:1])CSCC1O[C@@H](O)C(O)[C@H](O)[C@H]1O)[*:2]; Dap = NC[C@H](N)C(=O)O; Dha = C=C(N)C(=O)O

For `CSCC[C@@H]1NC(=O)[C@H](CC(C)C)NC(=O)[C@@H]2CNC(=O)C[C@H](NC1=O)C(=O)N[C@@H](Cc1c[nH]c3ccccc13)C(=O)N[C@@H](Cc1ccccc1)C(=O)N2` (cyclo(DWF[Dap]LM); lactam 1-4), the maximum response (Emax) in experiment [1] was 94%; in experiment [2], 95%; in experiment [3], 96%. At Substance-K receptor, the Kb was 6.17 nM.

On Substance-K receptor, `C=C1NC(=O)[C@H](CC(C)C)NC(=O)[C@@H]2CNC(=O)C[C@H](NC1=O)C(=O)N[C@@H](Cc1c[nH]c3ccccc13)C(=O)N[C@@H](Cc1ccccc1)C(=O)N2` (cyclo(DWF[Dap]L[Dha]); lactam 1-4) returned a pA2 of 9.65.

In the case of `CC(C)C[C@@H]1NC(=O)[C@@H]2CNC(=O)C[C@H](NC(=O)[C@H](CSCC3O[C@@H](O)C(O)[C@H](O)[C@H]3O)CNC1=O)C(=O)N[C@@H](Cc1c[nH]c3ccccc13)C(=O)N[C@@H](Cc1ccccc1)C(=O)N2` (some centres undefined) (cyclo(DWF[Dap]L[X1]); lactam 1-4), the Emax came out at 92% in experiment [1], 96% in experiment [2] and 99% in experiment [3]. The Kb on Substance-K receptor was 5.62 nM.
